Assays:
[1] = tested on: mUb-H2A and total protein ubiquitylation; test: Immunoblot of widespread cellular ubiquitylation (mUb-H2A, FK2 antibody); assay type: cell-based; conditions: U2OS; CU1 200 μM or CU2 500 μM; with or without HU 2.5 mM, 8 h
Description: Figure 3 Cell-based assays with CU1 and CU2: (a) Western blot showing that the formation of mUb-FANCD2(*), in response to HU treatment (2.5 mM, 8 h), is impaired in U2OS cells in the presence of CU1 (200 μM) or CU2 (500 μM). Ratio = mUb-FANCD2/FANCD2 (normalized to DMSO control). mUb-FANCD2 was resolved on a separate gel. PARP1 was used as a loading control for each gel, as well as to assess apoptosis. (b) Quantification of the reduction in mUb-FANCD2, in response to HU treatment (2.5 mM, 8 h) in the presence of CU1 (200 μM) or CU2 (500 μM). Mean calculated from three independent experiments. […] TEXT PRINTED IN THE PICTURE: (d) DMSO: S-phase 42.7; G1 29.2; G2-M 27.8 | (d) HU: S-phase 0.24; G1 72.4; G2-M 22.9 | (d) CU1: S-phase 43.4; G1 26.8; G2-M 29.1 | (d) CU2: S-phase 39.7; G1 31.9; G2-M 28.2 DOUBTS OF THE COPYIST ABOUT THIS PICTURE: Panel d print is small, so these digits are best readings: DMSO G2-M 27.8 (8 or 6); CU1 G1 26.8 (6 or 8); CU2 S-phase 39.7 (9 or 8); CU2 G2-M 28.2 (8 or 6) / Panels a and c: the lane ratios printed under the western blots (a: 1.0, 0.64, 0.40; c: 1.0/0.65, 1.0/0.63, 1.0/0.53) were left out because they belong to blots and the picture prints no measure for them […]
To investigate if the compounds were affecting more widespread ubiquitylation events in the cell, the monoubiquitylation status of histone H2A was assessed (mUb-H2A; Figure 3a). […]

[2] = tested on: pS345 CHK1, γH2AX, pS824 KAP1, PARP1; test: Immunoblot of DNA damage biomarkers (pS345 CHK1, γH2AX, pS824 KAP1, PARP1 cleavage) in U2OS cells; assay type: cell-based; conditions: 8 h, CU1 200 μM or CU2 500 μM; for levels of pS824 KAP1 / levels of pS345 CHK1: HU 2.5 mM; for levels of pS345 CHK1: relative to DMSO control; for levels of γH2AX (immunoblot): in combination with HU 2.5 mM, relative to HU plus DMSO
Description: As DNA damage induced by HU is cell-cycle-dependent, it was necessary to establish whether CU1 and CU2 might simply prevent cells from entering the S-phase, which would also manifest itself as a reduction in mUb-FANCD2. This was determined by analysis of several biomarkers linked to DNA damage in cycling cells. Activated CHK1 (pS345 CHK1) phosphorylates CDC25A, inducing the transient arrest of cells in the S-phase, or in G2 before the onset of mitosis.[18] […] These observations were also confirmed by cell cycle analysis.
Following the generation of DNA DSBs, ATM, ATR, and/or DNA-PKcs mediated phosphorylation of histone H2AX generates the phosphorylated species, γH2AX.[19] […] Following HU treatment, DSBs are formed if stalled replication forks are not stabilized and subsequently collapse. Therefore, we concluded that CU1 and CU2 appeared to act by impairing the ability of cells to stabilize and repair stalled replication forks. This is consistent with CU1 and CU2 inhibiting the formation of mUb-FANCD2, which would otherwise play a role in stabilizing stalled replication forks, thus preventing their collapse and the formation of DSBs.
In response to DSB formation, the transcriptional repressor and RING finger protein, KAP1, is released from chromatin, following its ATM-mediated phosphorylation on Ser824.[20] […] An increase in the number of DSBs could also have been caused by apoptosis. In cells undergoing apoptosis, PARP1 is cleaved from a full-length 116 kDa protein into 89 and 24 kDa polypeptides by caspase-3.[21]
Reaction mixtures were incubated for the indicated time at 37 °C and stopped by the addition of 2X reducing SDS -PAGE sample buffer, separated on NuPAGE Novex 4 –12% Bis/Tris gradient gels (Invitrogen) and visualized by Western blotting using the indicated antibodies (Table S3).
Cell culture. U2OS cells were cultured at 37 °C in a humidified atmosphere and 5% (v/v) CO2 in Dulbecco's Modified Eagle Medium (DMEM; Sigma-Aldrich) supplemented with 10% (v/v) fetal bovine serum (FBS), 100 units/ml of penicillin, […] of streptomycin and 292 μg/mL L-glutamine.
Cell extract preparation and immunoblotting. U2OS cells were lysed in buffer containing 50 mM Tris-HCl pH 7.5, 2% SDS, 10 mM NEM, cocktail protease inhibitor (Roche) and phosphatase inhibitor cocktail followed by sonication 100 µg of extracts were boiled for 5 mins at 95 °C in 5X loading buffer and loaded onto NuPAGE Novex 4–12% Bis/Tris gradient gels
(Invitrogen), or NuPAGE Novex 3-8% Tris/Acetate gradient gels (Invitrogen) for detection of mUb-FANCD2. After separation the gels were transferred to PVDF and the membranes were blocked with Tris-buffered saline containing 0.1% (v/v) Tween-20 (TBST) and 5% (v/v) bovine serum albumin (BSA) and incubated with the indicated primary and secondary antibodies. mUb-FANCD2 intensity was quantified using Image Studio (LI-COR).
IncuCyte cell proliferation assays. 2000 U2OS cells were seeded per well in 96-well plates and treated with compounds 24 hours afterwards. After 1 hour of compound treatment, 15 µM carboplatin (Sigma-Aldrich) was added and the cells were cultured in an incubator with an IncuCyte microscopy -platform (Essen BioScience). Phase -contrast images were acquired every 6 hours for 8 days until DMSO-carboplatin treated cells reached >80% confluence. Cell proliferation was monitored as the occupied area (% confluence) of cell images over time and calculated as percentage confluence over time. Cell confluency percentages were calculated using the integrated Cell Player software and results were analysed with Prism 6 (GraphPad Software).

Row | Compound | total protein ubiquitylation (FK2 antibody) [1] | levels of pS824 KAP1 [2] | levels of pS345 CHK1 [2] | levels of γH2AX (immunoblot) [2]
1 | NCCN1C(=O)CC[C@H]2CN(Cc3cccc(-c4ccco4)c3)CC[C@H]21 [CU1] | do not affect total protein ubiquitylation | increased levels of pS824 KAP1 | Comparable levels of pS345 CHK1 | somewhat increased the levels of γH2AX
2 | CCN1CCN(c2cc(C)nc3nc(CN4CCCCC4C)nn23)CC1 (centres unmarked) [CU2] | do not affect total protein ubiquitylation | increased levels of pS824 KAP1 | Comparable levels of pS345 CHK1 | somewhat increased the levels of γH2AX

Reference: article PMC6804243, “Small-Molecule Inhibition of UBE2T/FANCL-Mediated Ubiquitylation in the Fanconi Anemia Pathway” (ACS Chemical Biology, 2019)
